# Data reported in patent publication US9884048B2, “ERK inhibitors” (Merck Sharp & Dohme Corp., priority 2014, dated 2018).
# Molecular target: phosphorylated active hERK2 enzyme (Homo sapiens (Human), UniProt P28482)
# Settings: not given
# Chain of phosphorylated active hERK2 enzyme (P28482 whole entry): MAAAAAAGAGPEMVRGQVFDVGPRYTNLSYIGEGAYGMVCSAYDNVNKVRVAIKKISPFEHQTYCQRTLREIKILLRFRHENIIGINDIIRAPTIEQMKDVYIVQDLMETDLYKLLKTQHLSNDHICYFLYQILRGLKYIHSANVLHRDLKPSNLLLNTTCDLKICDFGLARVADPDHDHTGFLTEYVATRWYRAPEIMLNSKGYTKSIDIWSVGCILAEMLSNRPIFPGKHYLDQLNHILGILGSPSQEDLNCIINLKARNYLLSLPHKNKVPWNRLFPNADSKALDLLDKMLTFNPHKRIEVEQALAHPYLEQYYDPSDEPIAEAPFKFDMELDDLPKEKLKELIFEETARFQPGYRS
row,IC50 [µM],SMILES
1,0.0423,"Cc1cc(-n2ncc3cc(NC(=O)N[C@H]4CCC[C@H]4c4ccc(F)cc4)ncc32)ccn1 (racemic) [Example 153, Racemic cis 1-[(1S,2S) and (1R,2R)-2-(4-fluorophenyl)cyclopentyl]-3-[1-(2-methylpyridin-4-yl)-1H-pyrazolo[3,4-c]pyridin-5-yl]urea]"

# Same assay, conditions: read-out: ERK2 IC50; IMAP-FP assay; 0.5 nM hERK2, 30 μM ATP; 10 point titration, 3 μM starting concentration
row,IC50 [µM],SMILES
1,0.0248,"Cc1cc(-n2ncc3cc(NC(=O)NC(C)c4csc(C)n4)ncc32)ccn1 (centres unmarked) [Example 123, 1-[1-(2-methylpyridin-4-yl)-1H-pyrazolo[3,4-c]pyridin-5-yl]-3-[1-(2-methyl-1,3-thiazol-4-yl)ethyl]urea]"
2,1.58,"C[C@@H](NC(=O)Nc1cc2cnn(-c3ccc(F)cc3)c2c(CN(C)C)n1)c1ccccc1 [Example 243, 1-{7-[(dimethylamino)methyl]-1-(4-fluorophenyl)-1H-pyrazolo[3,4-c]pyridin-5-yl}-3-[(1R)-1-phenylethyl]urea]"
3,0.000442,"Cc1cc(-n2ncc3cc(NC(=O)NCc4cccc(NS(C)(=O)=O)c4)ncc32)ccn1 [Example 32, N-{3-[({[1-(2-methylpyridin-4-yl)-1H-pyrazolo[3,4-c]pyridin-5-yl]carbamoyl}amino)methyl]phenyl}methanesulfonamide]"
4,0.197,"Cc1cc(-n2ncc3cc(NC(=O)NC4CCC(c5ccc(F)cc5)C4)ncc32)ccn1 (centres unmarked) [Example 170, 1-[3-(4-fluorophenyl)cyclopentyl]-3-[1-(2-methylpyridin-4-yl)-1H-pyrazolo[3,4-c]pyridin-5-yl]urea]"
5,0.026,"O=C(NCc1ccc(Cl)cc1Cl)Nc1cc2cnn(-c3ccncc3)c2cn1 [Example 11, 1-(2,4-dichlorobenzyl)-3-(1-pyridin-4-yl-1H-pyrazolo[3,4-c]pyridin-5-yl)urea]"
6,0.169,"Cc1cc(-n2ncc3cc(NC(=O)N[C@H]4CCN(Cc5c(F)cccc5F)C4)ncc32)ccn1 [Example 282, 1-[(3S)-1-(2,6-difluorobenzyl)pyrrolidin-3-yl]-3-[1-(2-methylpyridin-4-yl)-1H-pyrazolo[3,4-c]pyridin-5-yl]urea]"
7,0.208,"Cc1ccc(-n2ncc3cc(NC(=O)N[C@H](C)c4ccccc4)ncc32)nn1 [Example 213, 1-[1-(6-methylpyridazin-3-yl)-1H-pyrazolo[3,4-c]pyridin-5-yl]-3-[(1R)-1-phenylethyl]urea]"
8,0.00102,"Cc1cc(-n2ncc3cc(NC(=O)N[C@H](CO)c4ccccc4)ncc32)ccn1 [Example 65, 1-[(1S)-2-hydroxy-1-phenylethyl]-3-[1-(2-methylpyridin-4-yl)-1H-pyrazolo[3,4-c]pyridin-5-yl]urea]"
9,0.078,"COCCCn1ncc2cc(NC(=O)N[C@H](C)c3ccccc3)nc(CO)c21 [Example 301, 1-[7-(hydroxymethyl)-1-(3-methoxypropyl)-1H-pyrazolo[3,4-c]pyridin-5-yl]-3-[(1R)-1-phenylethyl]urea]"
10,2.06,"CO[C@H]1CN(Cc2c(F)cccc2F)C[C@@H]1NC(=O)Nc1cc2cnn(-c3ccnc(C)c3)c2cn1 (single isomer, unassigned) [Example 273, 1-[(3S,4S) or (3R, 4R)-1-(2,6-difluorobenzyl)-4-methoxypyrrolidin-3-yl]-3-[1-(2-methylpyridin-4-yl)-1H-pyrazolo[3,4-c]pyridin-5-yl]urea]"
11,0.0597,"Cc1cc(-n2ncc3cc(NC(=O)N[C@H]4CN(C)C[C@@H]4c4ccccc4)ncc32)ccn1 [Example 182, 1-((3R,4S)1-methyl-4-phenyl-pyrrolidin-3-yl)-3-[1-(2-methyl-pyridin-4-yl)-1H-pyrazolo[3,4-c]pyridin-5-yl]urea]"
12,0.0164,"Cc1cc(-n2ncc3cc(NC(=O)NCCc4c(C)noc4C)ncc32)ccn1 [Example 117, 1-[2-(3,5-dimethylisoxazol-4-yl)ethyl]-3-[1-(2-methylpyridin-4-yl)-1H-pyrazolo[3,4-c]pyridin-5-yl)urea]"
13,0.00405,"Cc1cc(-n2ncc3cc(NC(=O)NCc4ccc(F)c(Cl)c4)ncc32)ccn1 [Example 214, 1-(3-chloro-4-fluorobenzyl)-3-[1-(2-methylpyridin-4-yl)-1H-pyrazolo[3,4-c]pyridin-5-yl]urea]"
14,0.0208,"Cn1cc(-n2ncc3cc(NC(=O)NCc4ccc(F)c(Cl)c4)ncc32)cn1 [Example 218, 1-(3-chloro-4-fluorobenzyl)-3-[1-(1-methyl-1H-pyrazol-4-yl)-1H-pyrazolo[3,4-c]pyridin-5-yl]urea]"
15,0.0107,"Cc1cc(-n2ncc3cc(NC(=O)NC(C)c4cccc(OC(F)(F)F)c4)ncc32)ccn1 (centres unmarked) [Example 48, 1-[1-(2-methylpyridin-4-yl)-1H-pyrazolo[3,4-c]pyridin-5-yl]-3-{1-[3-(trifluoromethoxy)phenyl]ethyl}urea]"
16,0.00504,"Cc1cc(-n2ncc3cc(NC(=O)NCc4cccc(Cl)c4)ncc32)ccn1 [Example 215, 1-(3-chlorobenzyl)-3-[1-(2-methylpyridin-4-yl)-1H-pyrazolo[3,4-c]pyridin-5-yl]urea]"
17,0.0164,"Cc1cc(-n2ncc3cc(NC(=O)N[C@H]4CN(C)C[C@@H]4Oc4ccc(F)cc4)ncc32)ccn1 [Example 285, 1-[(3S,4S)-4-(4-fluorophenoxy)-1-methylpyrrolidin-3-yl]-3-[1-(2-methylpyridin-4-yl)-1H-pyrazolo[3,4-c]pyridin-5-yl]urea]"

row,IC50 [µM],SMILES
1,0.432,"C=CC(=O)NCc1nc(NC(=O)N[C@H](C)c2ccccc2)cc2cnn(C)c12 [Example 324, N-{[1-Methyl-5-({[(1R)-1-phenylethyl]carbamoyl}amino)-1H-pyrazolo[3,4-c]pyridin-7-yl]methyl}prop-2-enamide]"
2,0.549,"Cc1cncc(-n2ncc3cc(NC(=O)N[C@H](C)c4ccccc4)ncc32)n1 [Example 211, 1-[1-(6-methylpyrazin-2-yl)-1H-pyrazolo[3,4-c]pyridin-5-yl]-3-[(1R)-1-phenylethyl]urea]"
3,0.025,"Cc1cc(-n2ncc3cc(NC(=O)N[C@H](C)c4ccccc4)nc(COC4COC4)c32)ccn1 [Example 250, 1-{1-(2-methylpyridin-4-yl)-7-[(oxetan-3-yloxy)methyl]-1H-pyrazolo[3,4-c]pyridin-5-yl}-3-[(1R)-1-phenylethyl]urea]"
4,0.00751,"Cc1cc(-n2ncc3cc(NC(=O)N[C@H]4CCC[C@@H]4OCc4ccccc4)ncc32)ccn1 [Example 154, 1-[(1S,2S)-2-(benzyloxy)cyclopentyl]-3-[1-(2-methylpyridin-4-yl)-1H-pyrazolo[3,4-c]pyridin-5-yl]urea]"
5,0.242,"Cc1cc(-n2ncc3cc(NC(=O)N[C@H]4CN(C)C[C@@H]4Oc4cncc(F)c4)ncc32)ccn1 [Example 276, 1-{(3S,4S)-4-[(5-fluoropyridin-3-yl)oxy]-1-methylpyrrolidin-3-yl}-3-[1-(2-methylpyridin-4-yl)-1H-pyrazolo[3,4-c]pyridin-5-yl]urea]"
6,0.0009,"O=C(NCc1ccc(Cl)c(Cl)c1)Nc1cc2cnn(-c3ccncc3)c2cn1 [Example 12, 1-(3,4-dichlorobenzyl)-3-(1-pyridin-4-yl-1H-pyrazolo[3,4-c]pyridin-5-yl)urea]"
7,0.000786,"Cc1cc(-n2ncc3cc(NC(=O)N[C@H](COC(C)C)c4ccccc4)ncc32)ccn1 [Example 135, 1-[(1S)-2-(1-methylethoxy)-1-phenylethyl]-3-[1-(2-methylpyridin-4-yl)-1H-pyrazolo[3,4-c]pyridin-5-yl]urea]"
8,0.0206,"CCN1C[C@@H](NC(=O)Nc2cc3cnn(-c4ccnc(C)c4)c3cn2)[C@H](c2ccccc2)C1 [Example 200, 1-[(3S,4R)-1-ethyl-4-phenylpyrrolidin-3-yl]-3-[1-(2-methylpyridin-4-yl)-1H-pyrazolo[3,4-c]pyridin-5-yl]urea]"
9,0.193,"Cc1cc(-n2ncc3cc(NC(=O)NCC(F)(F)c4ccccc4)ncc32)ccn1 [Example 61, 1-(2,2-difluoro-2-phenylethyl)-3-[1-(2-methylpyridin-4-yl)-1H-pyrazolo[3,4-c]pyridin-5-yl]urea]"
10,0.000254,"Cc1cc(-n2ncc3cc(NC(=O)N[C@H]4CN(C)C[C@@H]4c4ccc(C)s4)ncc32)ccn1 [Example 189, 1-[(3R,4S)-1-methyl-4-(5-methylthiophen-2-yl)pyrrolidin-3-yl]-3-[1-(2-methylpyridin-4-yl)-1H-pyrazolo[3,4-c]pyridin-5-yl]urea]"
11,0.00249,"Cc1cc(-n2ncc3cc(NC(=O)NC(c4ccccc4)C4CCCO4)ncc32)ccn1 (centres unmarked) [Example 159, 1-[1-(2-methylpyridin-4-yl)-1H-pyrazolo[3,4-c]pyridin-5-yl]-3-[phenyl(tetrahydrofuran-2-yl)methyl]urea]"
12,0.07,"Cc1cc(-n2ncc3cc(NC(=O)NCC4CN(C)C4)ncc32)ccn1 [Example 264, 1-((1-methylazetidin-3-yl)methyl)-3-(1-(2-methylpyridin-4-yl)-1H-pyrazolo[3,4-c]pyridin-5-yl)urea]"
13,0.0463,"Cc1cc(-n2ncc3cc(NC(=O)NCCC(F)(F)F)ncc32)ccn1 [Example 88, 1-[1-(2-methylpyridin-4-yl)-1H-pyrazolo[3,4-c]pyridin-5-yl]-3-(3,3,3-trifluoropropyl)urea]"
14,0.000952,"Cc1cc(-n2ncc3cc(NC(=O)N[C@H]4CN(C)C[C@@H]4c4ccccc4Cl)ncc32)ccn1 [Example 16, 1-[(3R,4S)-4-(2-chlorophenyl)-1-methylpyrrolidin-3-yl]-3-[1-(2-methylpyridin-4-yl)-1H-pyrazolo[3,4-c]pyridin-5-yl]urea]"
15,0.0194,"O=C(Nc1cc2cnn(-c3ccncc3)c2cn1)N[C@@H](c1ccccc1)C(F)(F)F [Example 38, 1-(1-pyridin-4-yl-1H-pyrazolo[3,4-c]pyridin-5-yl)-3-[(1S)-2,2,2-trifluoro-1-phenylethyl]urea]"
16,0.00285,"Cc1cc(-n2ncc3cc(NC(=O)N[C@H](C)c4ccc(F)c(Cl)c4)ncc32)ccn1 [Example 219, 1-[(1R)-1-(3-chloro-4-fluorophenyl)ethyl]-3-[1-(2-methylpyridin-4-yl)-1H-pyrazolo[3,4-c]pyridin-5-yl]urea]"
17,0.00826,"Cc1cc(-n2ncc3c(F)c(NC(=O)N[C@H](C)c4ccccc4)ncc32)ccn1 [Example 224, (R)-1-(4-Fluoro-1-(2-methylpyridin-4-yl)-1H-pyrazolo[3,4-c]pyridin-5-yl)-3-(1-phenylethyl)urea]"
